Consider two molecules from article PMC3468400, “Pharmacokinetic profiles of artesunate following multiple intravenous doses of 2, 4, and 8 mg/kg in healthy volunteers: Phase 1b study” (Malaria Journal, 2012).

Molecules are shown by their SMILES. Read-outs that look alike come from different tables or passages of the source.

In data set [1] the test system is asexual blood stage parasites. Conditions: cited from earlier work.
Data set [2] in a line: Pharmacokinetics of dihydroartemisinin (DHA), active metabolite, in plasma after multiple intravenous AS doses, non-compartmental analysis. Conditions: for Total AUCD1-D3: DHA, days 1-3; for AUC: Mean AUC of DHA, range over doses, AS 2-8 mg/kg iv. In kind it is in vivo, human. The protocol:
The study was a double blind, ascending multiple doses, alternating group, safety, tolerance, and PK study. […] When the injection was completed, the study nurse recorded tolerance of injection to include both inspection of site and subjects’ responses. Subjects were provided a light lunch at approximately 4 hours after dosing. Normal activities, excluding strenuous exercise, were permitted four hours after dosing. […] During the multiple-dose period, samples were collected immediately before morning dose on days 2 and 3 for additional trough values. All the samples were stored at −80 °C until shipment and were then shipped to a bio-analytical GLP laboratory, Midwest Research Institute (MRI), in Kansas City, MO, USA. The human use protocol numbers for the Phase 1 trial are: USUHS #G183RW; WRIAR #1128; and HSRRB #A-13276.
The analytes were extracted from human plasma with ethyl acetate. […] The reconstituted extracts were analysed on a Micromass Quattro II Mass Spectrometer in the positive ion electrospray ionization (+ESI) mode. […] This method employed a Varian Pursuit C18 column (150 x 2.0 mm, 5-μm particle size) and a gradient elution with the following mobile phases: A: 10 mM ammonium acetate in water with 1% formic acid and B: 10 mM ammonium acetate in acetonitrile with 1% formic acid, for the chromatographic separation.
Calibration standards and QC samples were analysed to evaluate the performance of the assay.
The maximum concentration in plasma for each subject was read directly from the experimental values. […] The values of the following PK parameters were derived by a non-compartmental method: the half-life (t½); mean residence time (MRT); the AUC from time zero to the last sampling time (AUCt); the AUC from time zero extrapolated to infinity (AUCinf); relative total systemic clearance (CL/F_obs); and volume of distribution during steady state (Vss/F_obs). A drug accumulation index was estimated from the AUC value on day 3 divided by the AUC value on day 1 (first multiple dose administration).

The test system of data set [3] is severe falciparum malaria. Conditions: SEAQUAMAT, severe malaria patients, intravenous treatment; cited from earlier work.
Setting [4] is: human, plasma, intravenous, all days and dose cohorts.

The CL/F is clearance divided by bioavailability, as obtained after extravascular dosing. As usually defined, the Tmax is the time from dosing to the highest level. One may read the Cmax as the highest concentration seen after dosing. For orientation: MRT means a mean duration of stay, worked out from the concentration-time curve. For orientation: AUC means the area under the concentration-time curve, a measure of exposure. For `C[C@H]1[C@@H](O)O[C@@H]2O[C@@]3(C)CC[C@H]4[C@H](C)CC[C@@H]1[C@@]24OO3` [DHA, dihydroartemisinin], the “time to complete inhibition of parasite growth” value in data set [1] is listed as “within two to four hours”. Also, the “Mean peak concentrations of DHA over the three days, range” value is 2923 to 3018 ng/mL in data set [2] (4 mg/kg cohort) and 5762 to 6056 ng/mL in data set [2] (8 mg/kg cohort). The “Total AUCD1-D3” value in data set [2] (AS 2 mg/kg iv daily for 3 days, mean (CV%), n = 6) is recorded as 6520 (18); in data set [2] (AS 4 mg/kg iv daily for 3 days, mean (CV%), n = 6) it was 12092 (20); in data set [2] (AS 8 mg/kg iv daily for 3 days, mean (CV%), n = 6), 27635 (34). Besides, the “time DHA detected in plasma” value in data set [2] (after each short-term infusion of AS, all volunteers) is “until six hours”. The AUC(0-inf) in data set [2] (human, plasma, intravenous, 2 mg/kg, Mean AUCinf of DHA over three days, range, 2 mg/kg cohort) was 2.02 to 2.39 µg·h/mL; in data set [2] (human, plasma, intravenous, 4 mg/kg, Mean AUCinf of DHA over three days, range, 4 mg/kg cohort), 3.74 to 4.39 µg·h/mL; in data set [2] (human, plasma, intravenous, 8 mg/kg, Mean AUCinf of DHA over three days, range, 8 mg/kg cohort), 8.73 to 9.7 µg·h/mL; in data set [2] (human, plasma, iv, 2 mg/kg, Day 1, DHA after AS 2 mg/kg iv daily for 3 days, 2 min infusion, mean (CV%), n = 6, NCA, read-out: AUCinf) it was 2.12 µg·h/mL; in data set [2] (human, plasma, iv, 4 mg/kg, Day 1, DHA after AS 4 mg/kg iv daily for 3 days, 2 min infusion, mean (CV%), n = 6, NCA, read-out: AUCinf), 4.39 µg·h/mL; in data set [2] (human, plasma, iv, 4 mg/kg, Day 3, DHA after AS 4 mg/kg iv daily for 3 days, 2 min infusion, mean (CV%), n = 6, NCA, read-out: AUCinf), 3.96 µg·h/mL. In addition, the AUC(0-inf) turned out to be 9.7 µg·h/mL in data set [2] (human, plasma, iv, 8 mg/kg, Day 1, DHA after AS 8 mg/kg iv daily for 3 days, 2 min infusion, mean (CV%), n = 6, NCA, read-out: AUCinf) and 9.21 µg·h/mL in data set [2] (human, plasma, iv, 8 mg/kg, Day 3, DHA after AS 8 mg/kg iv daily for 3 days, 2 min infusion, mean (CV%), n = 6, NCA, read-out: AUCinf). In data set [2] (setting [4]), the CL/F was in the range of 0.878 to 1.16 L/h/kg. The Tmax in data set [2] (setting [4]) is 0.16 to 0.29 h; in data set [2] (human, plasma, iv, 2 mg/kg, read-out: Tmax), 0.29 h; in data set [2] (human, plasma, iv, 4 mg/kg, read-out: Tmax) it was 0.25 h; in data set [2] (human, plasma, iv, 8 mg/kg, read-out: Tmax), 0.25 h. For the same molecule, the Cmax in data set [2] (human, plasma, iv, 2 mg/kg) amounted to 1.74 µg/mL; in data set [2] (human, plasma, iv, 4 mg/kg) it was 3.02 µg/mL; in data set [2] (human, plasma, iv, 8 mg/kg) it was 6.06 µg/mL. In addition, the mean residence time MRT in data set [2] (human, plasma, iv, 2 mg/kg, Day 1, DHA after AS 2 mg/kg iv daily for 3 days, 2 min infusion, mean (CV%), n = 6, NCA) was found to be 1.41 h; in data set [2] (human, plasma, iv, 2 mg/kg, Day 3, DHA after AS 2 mg/kg iv daily for 3 days, 2 min infusion, mean (CV%), n = 6, NCA) it was 1.39 h; in data set [2] (human, plasma, iv, 4 mg/kg, Day 1, DHA after AS 4 mg/kg iv daily for 3 days, 2 min infusion, mean (CV%), n = 6, NCA) it was 1.91 h; in data set [2] (human, plasma, iv, 4 mg/kg, Day 3, DHA after AS 4 mg/kg iv daily for 3 days, 2 min infusion, mean (CV%), n = 6, NCA), 1.57 h; in data set [2] (human, plasma, iv, 8 mg/kg, Day 1, DHA after AS 8 mg/kg iv daily for 3 days, 2 min infusion, mean (CV%), n = 6, NCA), 1.81 h; in data set [2] (human, plasma, iv, 8 mg/kg, Day 3, DHA after AS 8 mg/kg iv daily for 3 days, 2 min infusion, mean (CV%), n = 6, NCA) it was 1.78 h. Further, the half-life in data set [2] (human, plasma, iv, 2 mg/kg, Day 1, DHA after AS 2 mg/kg iv daily for 3 days, 2 min infusion, mean (CV%), n = 6, NCA, read-out: t1/2 elimination (converted)) is 1.19 h; in data set [2] (human, plasma, iv, 4 mg/kg, Day 1, DHA after AS 4 mg/kg iv daily for 3 days, 2 min infusion, mean (CV%), n = 6, NCA, read-out: t1/2 elimination (converted)), 1.74 h; in data set [2] (human, plasma, iv, 4 mg/kg, Day 3, DHA after AS 4 mg/kg iv daily for 3 days, 2 min infusion, mean (CV%), n = 6, NCA, read-out: t1/2 elimination (converted)), 1.24 h; in data set [2] (human, plasma, iv, 8 mg/kg, Day 1, DHA after AS 8 mg/kg iv daily for 3 days, 2 min infusion, mean (CV%), n = 6, NCA, read-out: t1/2 elimination (converted)) it was 1.42 h; in data set [2] (human, plasma, iv, 8 mg/kg, Day 3, DHA after AS 8 mg/kg iv daily for 3 days, 2 min infusion, mean (CV%), n = 6, NCA, read-out: t1/2 elimination (converted)) it was 1.34 h; in data set [2] (human, plasma, iv, 8 mg/kg, mean elimination half-life of DHA, range, range of means over three days and AS 2, 4, 8 mg/kg iv doses), 1.23 to 1.63 h. Besides, the AUC in data set [2] (human, plasma, iv, day 1) lay in the range of 2.12 to 9.7 µg·h/mL; in data set [2] (human, plasma, iv, day 3), 2.39 to 9.21 µg·h/mL. Moreover, the “mean elimination half-life of DHA, range” value in data set [2] (range of means over three days and AS 2, 4, 8 mg/kg iv doses) was 1.19 to 1.91 h.
In the case of `C=C[C@H]1C[N@@]2CC[C@H]1C[C@H]2[C@H](O)c1ccnc2ccc(OC)cc12` [quinine], the mortality rate in data set [3] is on record as 22%.
